Patent US11345711B2, “8,9-dihydroimidazo[1,2-a]pyrimido[5,4-e]pyrimidin-5(6H)-ones” (IMPACT THERAPEUTICS (SHANGHAI), INC, priority 2016, dated 2022)
Like-named read-outs stand apart in the source and are kept apart here.

Key:
LoVo cells = assay: MTT based cell viability assay on LoVo cells; details: Homo sapiens, LoVo, 72 h, 3 d, read-out: IC50, growth inhibition of LoVo cells
Summary of the method: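 Inhibition of LoVo proliferation was derived as IC50 from a sigmoidal dose-response fit of cell survival. Readout was MTT (0.5 mg/mL, 4 h) with absorbance at 552/630/690 nm, after 3-day treatment at 37 °C. Eight-point series from 10 μM to 0.01 μM, DMSO control, 1% DMSO final.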

NCI-H1299 cells = assay: MTT based cell viability assay on NCI-H1299 cells; details: Homo sapiens, read-out: IC50, growth inhibition of NCI-H1299 cells
Summary of the method: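 NCI-H1299 cells (1000/well, settled overnight) were exposed for 3 d at 37 °C, 5% CO2, to an eight-point series of 10 μM to 0.01 μM plus DMSO blank, as prepared in DMSO (final DMSO 1‰). MTT (0.5 mg/mL, 4 h) was read at 552/630/690 nm. IC50 came from sigmoidal dose-response fits of survival.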

Wee1 (h) = Wee1 (h) (Homo sapiens, UniProt P30291); assay: Wee1 kinase (h) detection method, [γ-33P]-ATP filter assay; type: biochemical
Wee1 (h), sequence (P30291 whole entry): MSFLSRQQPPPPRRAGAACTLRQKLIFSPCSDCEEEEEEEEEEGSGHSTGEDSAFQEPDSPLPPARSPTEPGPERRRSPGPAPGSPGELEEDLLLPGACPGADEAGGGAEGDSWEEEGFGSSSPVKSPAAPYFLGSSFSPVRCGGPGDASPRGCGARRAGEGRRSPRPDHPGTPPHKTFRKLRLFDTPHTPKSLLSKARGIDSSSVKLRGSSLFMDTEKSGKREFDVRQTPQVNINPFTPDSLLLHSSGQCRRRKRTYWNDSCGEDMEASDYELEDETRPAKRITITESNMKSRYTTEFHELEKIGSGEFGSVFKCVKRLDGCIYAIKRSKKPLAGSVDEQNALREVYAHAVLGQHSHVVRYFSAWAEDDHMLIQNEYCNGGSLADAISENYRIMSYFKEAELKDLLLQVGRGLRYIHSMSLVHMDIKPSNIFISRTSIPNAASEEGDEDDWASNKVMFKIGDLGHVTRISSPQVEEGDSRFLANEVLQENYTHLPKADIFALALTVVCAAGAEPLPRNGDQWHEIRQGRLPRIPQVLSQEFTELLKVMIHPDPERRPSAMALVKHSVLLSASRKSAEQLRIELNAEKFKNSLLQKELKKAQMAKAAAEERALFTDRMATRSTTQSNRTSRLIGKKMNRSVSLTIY

IC50 (LoVo cells) [nM] | IC50 (NCI-H1299 cells; NCI-H1299, NCI-H1299 cells) [nM] | Inh. (%) of Wee1 kinase enzyme activity (Wee1 (h); C 1 μm compound) [%] | Inh. (%) of Wee1 kinase enzyme activity (Wee1 (h); C 0.01 μm compound) [%] | Inh. (%) of Wee1 kinase enzyme activity (Wee1 (h); C 0.1 μm compound) [%] | IC50 (NCI-H1299 cells; NCI-H1299 cells) [nM] | Structure (SMILES)
105 | 233 | 98 | – | – | – | CN1CCC(c2ccc(Nc3ncc4c(n3)N3CCN=C3N(c3c(F)cccc3Cl)C4=O)cc2)CC1 [Example 114, 6-(2-Chloro-6-fluorophenyl)-2-((4-(1-methylpiperidin-4-yl)phenyl)amino)-8,9-dihydroimidazo[1,2-a]pyrimido[5,4-e]pyrimidin-5(6H)-one]
265 | 381 | 96 | 34 | 81 | – | CN(C)C1CCN(c2ccc(Nc3ncc4c(n3)N3CCN=C3N(c3c(F)cccc3Cl)C4=O)cc2)CC1 [Example 115, 6-(2-Chloro-6-fluorophenyl)-2-((4-(4-(dimethylamino)piperidin-1-yl)phenyl)amino)-8,9-dihydroimidazo[1,2-a]pyrimido[5,4-e]pyrimidin-5(6H)-one]
123 | 265 | 98 | 19 | 77 | – | CN(C)C1CCN(c2ccc(Nc3ncc4c(n3)N3CCN=C3N(c3c(F)cccc3Cl)C4=O)cc2F)CC1 [Example 116, 6-(2-Chloro-6-fluorophenyl)-2-((4-(4-(dimethylamino)piperidin-1-yl)-3-fluorophenyl)amino)-8,9-dihydroimidazo[1,2-a]pyrimido[5,4-e]pyrimidin-5(6H)-one]
66.2 | 103 | 98 | 22 | 84 | – | CN(C)C1CCN(c2ccc(Nc3ncc4c(n3)N3CCN=C3N(c3c(F)cccc3Cl)C4=O)cc2Cl)CC1 [Example 117, 6-(2-Chloro-6-fluorophenyl)-2-((3-chloro-4-(4-(dimethylamino)piperidin-1-yl)phenyl)amino)-8,9-dihydroimidazo[1,2-a]pyrimido[5,4-e]pyrimidin-5(6H)-one]
81.1 | 96.4 | 96 | 25 | 82 | – | CN(C)C1CCN(c2ccc(Nc3ncc4c(n3)N3CCN=C3N(c3c(F)cccc3Cl)C4=O)cc2Br)CC1 [Example 118, 6-(2-Chloro-6-fluorophenyl)-2-((3-bromo-4-(4-(dimethylamino)piperidin-1-yl)phenyl)amino)-8,9-dihydroimidazo[1,2-a]pyrimido[5,4-e]pyrimidin-5(6H)-one]
54.3 | 92.3 | 99 | 24 | 86 | – | Cc1cc(Nc2ncc3c(n2)N2CCN=C2N(c2c(F)cccc2Cl)C3=O)ccc1N1CCC(N(C)C)CC1 [Example 119, 6-(2-Chloro-6-fluorophenyl)-2-((4-(4-(dimethylamino)piperidin-1-yl)-3-methylphenyl)amino)-8,9-dihydroimidazo[1,2-a]pyrimido[5,4-e]pyrimidin-5(6H)-one]
35.9 | 59.3 | 98 | 16 | 80 | – | Cc1cc(Nc2ncc3c(n2)N2CCN=C2N(c2c(F)cccc2Cl)C3=O)cc(F)c1N1CCC(N(C)C)CC1 [Example 120, 6-(2-Chloro-6-fluorophenyl)-2-((3-fluoro-5-methyl-4-(4-(dimethylamino)piperidin-1-yl)phenyl)amino)-8,9-dihydroimidazo[1,2-a]pyrimido[5,4-e]pyrimidin-5(6H)-one]
26.4 | 92.9 | 95 | 18 | 74 | – | Cc1cc(Nc2ncc3c(n2)N2CCN=C2N(c2c(F)cccc2Cl)C3=O)cc(Cl)c1N1CCN(C)CC1 [Example 125, 6-(2-Chloro-6-fluorophenyl)-2-((3-chloro-5-methyl-4-(4-methylpiperazin-1-yl)phenyl)amino)-8,9-dihydroimidazo[1,2-a]pyrimido[5,4-e]pyrimidin-5(6H)-one]

Second part, the compound before the results:

Structure (SMILES) | IC50 (LoVo cells) [nM] | IC50 (NCI-H1299 cells; NCI-H1299, NCI-H1299 cells) [nM] | Inh. (%) of Wee1 kinase enzyme activity (Wee1 (h); C 1 μm compound) [%] | Inh. (%) of Wee1 kinase enzyme activity (Wee1 (h); C 0.01 μm compound) [%] | Inh. (%) of Wee1 kinase enzyme activity (Wee1 (h); C 0.1 μm compound) [%] | IC50 (NCI-H1299 cells; NCI-H1299 cells) [nM]
CN1CCN(c2cnc(Nc3ncc4c(n3)N3CCN=C3N(c3c(F)cccc3Cl)C4=O)cn2)CC1 [Example 121, 6-(2-Chloro-6-fluorophenyl)-2-((5-(4-methylpiperazin-1-yl)pyrazin-2-yl)amino)-8,9-dihydroimidazo[1,2-a]pyrimido[5,4-e]pyrimidin-5(6H)-one] | > 100000 | – | 15 | – | – | > 10000
CN1CCN(c2c(Cl)cc(Nc3ncc4c(n3)N3CCN=C3N(c3c(F)cccc3Cl)C4=O)cc2Cl)CC1 [Example 122, 6-(2-Chloro-6-fluorophenyl)-2-((3,5-dichloro-4-(4-methylpiperazin-1-yl)phenyl)amino)-8,9-dihydroimidazo[1,2-a]pyrimido[5,4-e]pyrimidin-5(6H)-one] | 51.8 | 334 | 91 | 20 | 58 | –
Cc1cc(Nc2ncc3c(n2)N2CCN=C2N(c2c(F)cccc2Cl)C3=O)cc(F)c1N1CCN(C)CC1 [Example 123, 6-(2-Chloro-6-fluorophenyl)-2-((3-fluoro-5-methyl-4-(4-methylpiperazin-1-yl)phenyl)amino)-8,9-dihydroimidazo[1,2-a]pyrimido[5,4-e]pyrimidin-5(6H)-one] | 39.1 | 218 | 97 | 43 | 87 | –
COc1cc(Nc2ncc3c(n2)N2CCN=C2N(c2c(F)cccc2Cl)C3=O)cc(F)c1N1CCN(C)CC1 [Example 124, 6-(2-Chloro-6-fluorophenyl)-2-((3-fluoro-5-methoxy-4-(4-methylpiperazin-1-yl)phenyl)amino)-8,9-dihydroimidazo[1,2-a]pyrimido[5,4-e]pyrimidin-5(6H)-one] | 49.7 | 138 | 92 | 18 | 62 | –
COc1cc(Nc2ncc3c(n2)N2CCN=C2N(c2c(F)cccc2Cl)C3=O)cc(Cl)c1N1CCN(C)CC1 [Example 126, 6-(2-Chloro-6-fluorophenyl)-2-((3-chloro-5-methoxy-4-(4-methylpiperazin-1-yl)phenyl)amino)-8,9-dihydroimidazo[1,2-a]pyrimido[5,4-e]pyrimidin-5(6H)-one] | 56.7 | 67 | 89 | – | – | –
COc1cc(Nc2ncc3c(n2)N2CCN=C2N(c2c(F)cccc2Cl)C3=O)cc(Br)c1N1CCN(C)CC1 [Example 127, 6-(2-Chloro-6-fluorophenyl)-2-((3-bromo-5-methoxy-4-(4-methylpiperazin-1-yl)phenyl)amino)-8,9-dihydroimidazo[1,2-a]pyrimido[5,4-e]pyrimidin-5(6H)-one] | 42.3 | – | 88 | – | – | 96.5
